Measured values as given in patent publication US9018214B2, “Bicyclic heterocycle compounds and their uses in therapy” (Astex Therapeutics Limited, priority 2011, dated 2015).
Where a name gives a salt, the structure may show the parent alone. Read-outs that look alike come from different tables or passages of the source. Values belong to the compound of their own block, whether it stands above or below them.

Columns and labels:
[1] = biological target: BIR3 domain of human cIAP-1 (residues 267-363) (Homo sapiens (Human), UniProt Q13490); experiment: cIAP-1 in vitro competitive displacement binding assay (fluorescence polarization; Probe A AVPIK(5&6FAM)-amide or Probe B AbuRPFK(5&6FAM)-amide)
[2] = tested on: EVSA-T (human breast carcinoma); experiment: Anti-proliferative activity, Alamar Blue assay, EVSA-T; assay type: cell-based; conditions: Homo sapiens, EVSA-T; for EC50: read-out: EVSA-T prolif (EC50); for inhibition at 10 µM: read-out: EVSA-T prolif: % inhibition
[3] = tested on: MDA-MB-231 (human breast carcinoma); experiment: Anti-proliferative activity, Alamar Blue assay, MDA-MB-231; assay type: cell-based; conditions: MDA-MB-231, 72 h, read-out: EC50, inhibition of cell growth
[4] = biological target: BIR3 domain of human XIAP (residues 252-350) (Homo sapiens (Human), UniProt P98170); experiment: XIAP in vitro competitive displacement binding assay (fluorescence polarization); conditions: for IC50: read-out: IC50 or PI Xiap: IC50
[5] = Probe B AbuRPFK(5&6FAM)-amide, read-out: IC50 or PI cIAP1: IC50
[6] = 3 h, read-out: IC50 or PI cIAP1: PI
[7] = 1 h, read-out: IC50 or PI Xiap: PI
[8] = 3 h, Probe B, @ 0.012 μM, read-out: IC50 or PI cIAP1: PI
[9] = read-out: IC50 or PI cIAP1: IC50

SMILES: COC[C@H]1CN[C@H](C)CN1CC(=O)N1CC(C)(C)c2cc(F)c(S(=O)(=O)c3ccccc3)cc21 [Example 58, 1-(6-Benzene-sulfonyl-5-fluoro-3,3-dimethyl-2,3-dihydro-indol-1-yl)-2-((2R,5R)-2-methoxymethyl-5-methyl-piperazin-1-yl)-ethanone hydrochloride salt]
IC50 [1, 5]: 45 nM
EC50 ([2]; 72 h): 170 nM
EC50 [3]: < 10000 nM

SMILES: COC[C@H]1CN[C@H](C)CN1CC(=O)N1CC(C)(C)c2cnc(Cc3ccccc3)cc21 [Example 63, 1-(6-Benzyl-3,3-dimethyl-2,3-dihydro-pyrrolo[3,2-c]pyridin-1-yl)-2-((2R,5R)-2-methoxy-methyl-5-methyl-piperazin-1-yl)-ethanone hydrochloride salt]
EC50 ([2]; 72 h): 100 nM
EC50 [3]: < 10000 nM

SMILES: COC[C@H]1CN[C@H](C)CN1CC(=O)N1CC(C)(C)c2ccc(Cc3ccccc3)cc21 [Example 94, 1-(6-Benzyl-3,3-dimethyl-2,3-dihydro-1H-indol-1-yl)-2-[(2R,5R)-2-(methoxy-methyl)-5-methyl-piperazin-1-yl]ethan-1-one, hydrochloride salt]
IC50 [1, 5]: 14 nM
EC50 ([2]; 72 h): 330 nM
EC50 [3]: < 10000 nM

SMILES: COC[C@H]1CN[C@H](C)CN1CC(=O)N1CC(C)(C)c2cc(F)c(S(=O)(=O)c3ccc(OC)cc3)cc21 [Example 60, 1-[5-Fluoro-6-(4-methoxy-benzenesulfonyl)-3,3-dimethyl-2,3-dihydro-indol-1-yl]-2-((2R,5R)-2-methoxymethyl-5-methyl-piperazin-1-yl)-ethanone dihydrochloride salt]
EC50 ([2]; 72 h): 690 nM
EC50 [3]: < 10000 nM

SMILES: C[C@@H]1CN(CC(=O)N2CC(C)(C)c3ncc(C(F)(F)c4ccccc4)cc32)[C@@H](CN2CCOCC2)CN1 [Example 232, 1-{6-[Difluoro(phenyl)methyl]-3,3-dimethyl-1H,2H,3H-pyrrolo[3,2-b]pyridin-1-yl}-2-[(2R,5R)-5-methyl-2-(morpholin-4-ylmethyl)piperazin-1-yl]ethan-1-one dihydrochloride]
inhibition at […] [1, 6]: 77%
EC50 ([2]; 72 hours, Alamar Blue): 36 nM
inhibition at 0.04 µM [4, 7]: 48%

SMILES: C[C@@H]1CN(CC(=O)N2CC(C)(C)c3ncc(Cc4ccc(F)cc4F)cc32)[C@@H](CN2CC[C@@H](F)C2)CN1 [Example 205, 1-{6-[(2,4-Difluorophenyl)methyl]-3,3-dimethyl-1H,2H,3H-pyrrolo[3,2-b]pyridin-1-yl}-2-[(2R,5R)-2-{[(3R)-3-fluoropyrrolidin-1-yl]methyl]-5-methylpiperazin-1-yl]ethan-1-one hydrochloride]
inhibition at […] [1, 8]: 97%
EC50 ([2]; 72 hours, Alamar Blue): 19 nM
IC50 [4]: 100 nM

SMILES: CC[C@@H](C(=O)N1CC(C)(C)c2ccc(C#N)cc21)N1CCN[C@H](C)C1 [Example 266, 3,3-Dimethyl-1-[(2S)-2-[(3R)-3-methylpiperazin-1-yl]butanoyl]-2,3-dihydro-1H-indole-6-carbonitrile, hydrochloride salt]
inhibition at 50 µM [1, 6]: 24%
inhibition at 10 µM ([2]; at 10 μM): -20%
inhibition at 150 µM [4, 7]: -6%

IC50 [1, 5]: 17 nM
EC50 ([2]; 72 hours, Alamar Blue): 640 nM
IC50 [4]: 75 nM
SMILES: COC[C@H]1CN[C@H](C)CN1CC(=O)N1CC(C)(C)c2cnc(C(F)(F)c3ccccc3)cc21 [Example 146, 1-{6-[Difluoro(phenyl)methyl]-3,3-dimethyl-1H,2H,3H-pyrrolo[3,2-c]pyridin-1-yl}-2-[(2R,5R)-2-(methoxymethyl)-5-methylpiperazin-1-yl]ethan-1-one hydrochloride]

inhibition at […] [1, 8]: 86%
EC50 ([2]; 72 hours, Alamar Blue): 4.2 nM
IC50 [4]: 47 nM
SMILES: C[C@@H]1CN(CC(=O)N2CC(C)(C)c3cnc(Cc4ccccc4F)cc32)[C@@H](CN2CCOCC2)CN1 [Example 245, 1-{6-[(2-Fluorophenyl)methyl]-3,3-dimethyl-1H,2H,3H-pyrrolo[3,2-c]pyridin-1-yl}-2-[(2R,5R)-5-methyl-2-(morpholin-4-ylmethyl)piperazin-1-yl]ethan-1-one hydrochloride]

SMILES: C[C@@H]1CN(CC(=O)N2CC(C)(C)c3ncc(C(C)(F)F)cc32)[C@@H](CN2CCN(C)C(=O)C2)CN1 [Example 228, 4-{[(2R,5R)-1-{2-[6-(1,1-Difluoroethyl)-3,3-dimethyl-1H,2H,3H-pyrrolo[3,2-b]pyridin-1-yl]-2-oxoethyl}-5-methylpiperazin-2-yl]methyl}-1-methylpiperazin-2-one dihydrochloride]
IC50 [1]: < 1000 nM
IC50 [1, 9]: 24 nM
EC50 ([2]; 72 h): 680 nM
IC50 [4]: 99 nM

IC50 [1]: < 1000 nM
IC50 [1, 5]: 18 nM
EC50 ([2]; 72 hours, Alamar Blue): 270 nM
IC50 [4]: 49 nM
SMILES: C[C@@H]1CN(CC(=O)N2CC(C)(C)c3cnc(Oc4ccccc4Cl)cc32)[C@@H](Cn2cc(F)cn2)CN1 [Example 177, 1-[6-(2-Chlorophenoxy)-3,3-dimethyl-1H,2H,3H-pyrrolo[3,2-c]pyridin-1-yl]-2-[(2R,5R)-2-[(4-fluoro-1H-pyrazol-1-yl)methyl]-5-methylpiperazin-1-yl]ethan-1-one hydrochloride]

SMILES: C[C@@H]1CN(CC(=O)N2CC(C)(C)c3cnc(Cc4ccccc4)cc32)[C@@H](CN2CCCC2=O)CN1 [Example 172, 1-{[(2R,5R)-1-(2-{6-Benzyl-3,3-dimethyl-1H,2H,3H-pyrrolo[3,2-c]pyridin-1-yl}-2-oxoethyl)-5-methylpiperazin-2-yl]methyl}pyrrolidin-2-one dihydrochloride]
inhibition at […] [1, 6]: 78%
EC50 ([2]; 72 hours, Alamar Blue): 56 nM
inhibition at 0.04 µM [4, 7]: 58%

SMILES: C[C@@H]1CN(CC(=O)N2CC(C)(C)c3cnc(C(F)(F)c4ccccc4)cc32)[C@@H](CN2CCOCC2)CN1 [Example 224, 1-{6-[Difluoro(phenyl)methyl]-3,3-dimethyl-1H,2H,3H-pyrrolo[3,2-c]pyridin-1-yl}-2-[(2R,5R)-5-methyl-2-(morpholin-4-ylmethyl)piperazin-1-yl]ethan-1-one dihydrochloride]
inhibition at […] [1, 6]: 83%
EC50 ([2]; 72 hours, Alamar Blue): 19 nM
inhibition at 0.04 µM [4, 7]: 77%

inhibition at […] [1, 8]: 72%
EC50 ([2]; 72 hours, Alamar Blue): 32 nM
inhibition at 0.04 µM ([4]; 1 h, @ 0.04 μM, read-out: IC50 or PI Xiap: PI): 52%
SMILES: CCCC(F)(F)c1cc2c(cn1)C(C)(C)CN2C(=O)CN1C[C@@H](C)NC[C@@H]1CN1CCOCC1 [Example 239, 1-[6-(1,1-Difluorobutyl)-3,3-dimethyl-1H,2H,3H-pyrrolo[3,2-c]pyridin-1-yl]-2-[(2R,5R)-5-methyl-2-(morpholin-4-ylmethyl)piperazin-1-yl]ethan-1-one hydrochloride]

SMILES: C[C@@H]1CN(CC(=O)N2CC(C)(C)c3ncc(Cc4ccc(F)cc4F)cc32)[C@@H](CN2CC[C@H](F)C2)CN1 [Example 204, 1-{6-[(2,4-Difluorophenyl)methyl]-3,3-dimethyl-1H,2H,3H-pyrrolo[3,2-b]pyridin-1-yl}-2-[(2R,5R)-2-{[(3S)-3-fluoropyrrolidin-1-yl]methyl}-5-methylpiperazin-1-yl]ethan-1-one dihydrochloride]
inhibition at […] [1, 6]: 91%
EC50 ([2]; 72 h): 21 nM
IC50 [4]: 110 nM

SMILES: COC[C@H]1CN[C@H](C)CN1CC(=O)N1CC(C)(C)c2ccc(S(=O)(=O)NC(C)C)cc21 [Example 69, 1-[2-((2R,5R)-2-Methoxymethyl-5-methyl-piperazin-1-yl)-acetyl]-3,3-dimethyl-2,3-dihydro-1H-indole-6-sulfonic acid isopropylamide dihydrochloride salt]
IC50 [1, 9]: 1400 nM
inhibition at 10 µM [2]: 54%
IC50 [4]: 280 nM

inhibition at […] [1, 8]: 88%
EC50 ([2]; 72 hours, Alamar Blue): 5.2 nM
IC50 [4]: 81 nM
SMILES: C[C@@H]1CN(CC(=O)N2CC(C)(C)c3nnc(Cc4ccc(F)cc4F)cc32)[C@@H](CN2CCCC2=O)CN1 [Example 201, 1-{[(2R,5R)-1-(2-{3-[(2,4-Difluorophenyl)methyl]-7,7-dimethyl-5H,6H,7H-pyrrolo[3,2-c]pyridazin-5-yl}-2-oxoethyl)-5-methylpiperazin-2-yl]methyl}pyrrolidin-2-one hydrochloride]

IC50 [1]: < 1000 nM
IC50 [1, 5]: 24 nM
EC50 ([2]; 72 hours, Alamar Blue): 190 nM
IC50 [4]: 82 nM
SMILES: CCC(F)(F)c1cc2c(cn1)C(C)(C)CN2C(=O)CN1C[C@@H](C)NC[C@@H]1CN1CC[C@@H](F)C1 [Example 214, 1-[6-(1,1-Difluoropropyl)-3,3-dimethyl-1H,2H,3H-pyrrolo[3,2-c]pyridin-1-yl]-2-[(2R,5R)-2-{[(3R)-3-fluoropyrrolidin-1-yl]methyl]-5-methylpiperazin-1-yl]ethan-1-one hydrochloride]

SMILES: C[C@@H]1CN(CC(=O)N2CC(C)(C)c3cc(F)c(S(=O)(=O)N4CCCC4)cc32)CCN1 [Example 49, 1-[5-Fluoro-3,3-dimethyl-6-(pyrrolidine-1-sulfonyl)-2,3-dihydro-indol-1-yl]-2-((R)-3-methyl-piperazin-1-yl)-ethanone dihydrochloride salt]
IC50 [1, 9]: 4100 nM
inhibition at 10 µM [2]: 2%
IC50 [4]: 640 nM

SMILES: C[C@@H]1CN(CC(=O)N2CC(C)(C)c3cnc(C(F)(F)c4ccccc4)cc32)[C@@H](CN2C(=O)CCC2=O)CN1 [Example 218, 1-{[(2R,5R)-1-(2-{6-[Difluoro(phenyl)methyl]-3,3-dimethyl-1H,2H,3H-pyrrolo[3,2-c]pyridin-1-yl}-2-oxoethyl)-5-methylpiperazin-2-yl]methyl}pyrrolidine-2,5-dione dihydrochloride]
inhibition at […] [1, 6]: 78%
EC50 ([2]; 72 h): 65 nM
IC50 [4]: 61 nM
